This note sets out measurements from ChEMBL document CHEMBL1949629, “Discovery of a second generation agonist of the orphan G-protein coupled receptor GPR119 with an improved profile” (Bioorg Med Chem Lett, 2012).

Molecules are shown by their SMILES. In brackets after ≈: the same amount, converted by molar mass.

A short description of data set [1]: Solubility in 20% HPbetaCD after 24 hrs. Type of data set: physicochemical.
The nature of data set [2]: Solubility in 40% HPbetaCD after 24 hrs. In kind it is physicochemical.
Data set [3] is described as follows: Clearance in iv dosed Beagle dog. In kind it is ADME, organism-based, Canis lupus familiaris. The settings on record: in vivo.
Data set [4] is described as follows: Clearance in iv dosed Zucker fa/fa rat. As to conditions: in vivo. In kind it is ADME, organism-based.
Data set [5] in a line: Clearance in iv dosed Swiss albino mouse. Type of data set: ADME, organism-based. The settings on record: in vivo.
A short description of data set [6]: Clearance in iv dosed Sprague-Dawley rat. Type of data set: ADME, organism-based. The settings on record: in vivo.
A short description of data set [7]: Clearance in iv dosed Cynomolgus monkey. Type of data set: ADME, organism-based, Macaca fascicularis. The settings on record: in vivo.
The target of a further data set is Cytochrome P450 2C9 (Homo sapiens, UniProt P11712). Description: Inhibition of CYP2C9. Type of data set: ADME.
Sequence of Cytochrome P450 2C9 (P11712 whole entry): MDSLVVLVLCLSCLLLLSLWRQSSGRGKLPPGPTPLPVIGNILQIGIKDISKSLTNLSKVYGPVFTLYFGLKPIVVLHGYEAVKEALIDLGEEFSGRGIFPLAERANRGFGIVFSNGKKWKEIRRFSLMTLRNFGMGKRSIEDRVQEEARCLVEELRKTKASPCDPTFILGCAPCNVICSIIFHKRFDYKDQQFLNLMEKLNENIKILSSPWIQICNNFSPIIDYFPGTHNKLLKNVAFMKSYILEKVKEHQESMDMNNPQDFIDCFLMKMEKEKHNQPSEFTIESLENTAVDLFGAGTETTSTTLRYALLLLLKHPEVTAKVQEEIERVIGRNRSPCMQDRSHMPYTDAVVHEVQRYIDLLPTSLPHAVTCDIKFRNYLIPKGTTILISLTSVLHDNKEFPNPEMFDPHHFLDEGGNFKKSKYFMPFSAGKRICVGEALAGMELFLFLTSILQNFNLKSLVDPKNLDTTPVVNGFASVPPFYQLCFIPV
A short description of data set [8]: Solubility in water. In kind it is physicochemical. As to conditions: buffer.
The nature of data set [9]: Solubility in water at low pH. Type of data set: physicochemical. The settings on record: buffer.

By solubility is commonly meant the dissolved amount per volume that the medium holds. As for `Cc1ncccc1Oc1ncnc(OC2CCN(C(=O)OC(C)C)CC2)c1C`, the solubility at 24 h in data set [1] and in data set [2] was 15900 µg/mL (≈ 41.1 mM) each time.

One may read the clearance as a measure of how efficiently the substance is removed, as volume per time. In the case of `CC(C)OC(=O)N1CCC(Oc2ncnc3c2cnn3-c2ccc(S(C)(=O)=O)cc2F)CC1`, the clearance in data set [3] is 2 mL/min/kg; in data set [4], 7.33 mL/min/kg; in data set [5] it was 3.83 mL/min/kg; in data set [6], 20 mL/min/kg; in [7], 1.83 mL/min/kg.

In the case of `Cc1ccc(Oc2ncnc(OC3CCN(C(=O)OC(C)C)CC3)c2C)c(C)n1`, the concentration in solution in data set [1] (solubility at 24 h) was 13200 µg/mL (≈ 33.1 mM).

The IC50 is the concentration that gives 50% inhibition. As to `Cc1c(Oc2ccc(S(C)(=O)=O)cc2F)ncnc1OC1CCN(C(=O)OC(C)C)CC1`, the solubility at 24 h in data set [1] and in data set [2] was 1100 µg/mL (≈ 2.35 mM) throughout. Further, on Cytochrome P450 2C9, the IC50 was 5.3 µM.

With `Cc1c(Nc2ccc(S(C)(=O)=O)cc2F)ncnc1OC1CCN(C(=O)OC(C)C)CC1`, the solubility at 24 h in data set [2] was found to be 16700 µg/mL (≈ 35.8 mM).

In the case of `Cc1ncccc1Nc1ncnc(OC2CCN(C(=O)OC(C)C)CC2)c1C`, the solubility at 24 h in [2] came to 7700 µg/mL (≈ 20 mM).

Turning to `Cc1ccncc1Oc1ncnc(OC2CCN(C(=O)OC(C)C)CC2)c1C`, the concentration in solution in data set [2] (solubility at 24 h) came to 8500 µg/mL (≈ 22 mM).

For `Cc1c(Oc2cncc(F)c2)ncnc1OC1CCN(C(=O)OC(C)C)CC1`, in data set [1], the solubility at 24 h worked out at 5100 µg/mL (≈ 13.1 mM).

The compound `Cc1nc(S(C)(=O)=O)ccc1Oc1ncnc(OC2CCN(C(=O)OC(C)C)CC2)c1C` returned a solubility at 24 h in data set [1] of 6700 µg/mL (≈ 14.4 mM).

For the compound `Cc1nc(S(C)(=O)=O)ccc1Nc1ncnc(OC2CCN(C(=O)OC(C)C)CC2)c1C`, the solubility result in data set [8] was “Insoluble”; in data set [9], “soluble”. This compound also registered a solubility at 24 h in data set [1] of 24000 µg/mL (≈ 51.8 mM). The compound further displayed an IC50 against Cytochrome P450 2C9 of 2.5 µM.
